Series [1] deals with T1, peripheral benzodiazepine binding site (Rattus norvegicus, UniProt P16257).
T1 construct: diluted kidney membrane preparation (200 μg); from tissue; host or cells: kidney membrane preparation
Kind of series: In vitro binding, [3H]-PK11195, kidney membrane preparation. Particulars: [3H]-PK11195 (2 nM), 4° C., 1 h. The protocol: Non-specific binding was determined with PK11195 (10 μM).
(§1) Non-specific binding was determined with Flumazenil (20 μM). In both cases, incubations were terminated by rapid filtration through Whatman GF/B glass fibre. Filters were immediately washed 3 times with 5 mL ice-cold 50 mM Tris/HCl at pH 7.4. Filters were counted in a β-scintillation counter (Packard) to measure the amount of bound radioactivity. The IC50 of the compounds for the peripheral benzodiazepine binding site and the central benzodiazepine receptor were calculated using Kell 6 software.

Series [2] deals with central benzodiazepine receptors. Nature of the series: In vitro binding, [3H]-Flumazenil, brain cortex membrane preparation. The settings on record: for IC50: [3H]-Flumazenil (2 nM), 25° C., 45 min, read-out: CBR IC50. On the procedure:
as §1

Where two headings read alike, the source gives them in different places.

The text below walks through data of patent US20100209345A1, “Fluorinated Ligands for Targeting Peripheral Benzodiazepine Receptors” (Australian Nuclear Science & Technology Organisation, priority 2006, published 2010).

In the case of “2-(6-chloro-2-(4-methoxyphenyl)imidazo[1,2-b]pyridazin-3-yl)-N,N-diethylacetamide [PBR 133]”, the concentration for half-maximal inhibition (IC50) (usually the concentration that inhibits the measured activity by half) was 32 nM in series [1] (read-out: PBR IC50) and 18.8 nM in series [2]. Besides, the “LogP HPLC” value in the series “LogP HPLC” (HPLC) is 2.35 ± 0.07.
On to `CCN(CC)C(=O)Cc1c(-c2ccc(C(C)(C)C)cc2)nc2ccc(F)nn12` [Compound 1, reference compound], for which the IC50 in series [1] (PBR IC50 (nM)) stood at 29 nM; in series [2], 340 nM.
Take `CCCN(CCC)C(=O)Cc1c(-c2ccc(OCCF)cc2)nc2ccc(Cl)cn12` [PBR103, 2-(2-(4-(2-fluoroethoxy)phenyl)-6-chloroimidazo[1,2-a]pyridin-3-yl)-N,N-dipropylacetamide]: the IC50 turned out to be 51.3 nM in series [1] (PBR IC50 (nM)) and 1840 nM in series [2]. Besides, the chromatographic logP (commonly a lipophilicity value derived from retention on a column) in “LogP HPLC” worked out at 3.44 ± 0.11.
Taken in the same sequence, the figures for `O=C(Cc1c(-c2ccc(OCCF)cc2)nc2ccc(Cl)cn12)N1CCCC1` [PBR104, 2-(2-(4-(2-fluoroethoxy)phenyl)-6-chloroimidazo[1,2-a]pyridin-3-yl)-1-(pyrrolidin-1-yl)ethanone] were 575 nM, 1640 nM and 2.45 ± 0.08.
Taken in the same sequence, the figures for `CN(C)C(=O)Cc1c(-c2ccc(OCCF)cc2)nc2ccc(Cl)cn12` [PBR105, 2-(2-(4-(2-fluoroethoxy)phenyl)-6-chloroimidazo[1,2-a]pyridin-3-yl)-N,N-dimethylacetamide] were 675 nM, 1760 nM and 2.04 ± 0.06.
Taken in the same sequence, the figures for `CNC(=O)Cc1c(-c2ccc(OCCF)cc2)nc2ccc(Cl)cn12` [PBR106, 2-(2-(4-(2-fluoroethoxy)phenyl)-6-chloroimidazo[1,2-a]pyridin-3-yl)-N-methylacetamide] were 170 nM, 548 nM and 2.05 ± 0.07.
On to `CCN(C)C(=O)Cc1c(-c2ccc(OCCF)cc2)nc2ccc(Cl)cn12` [PBR107, 2-(2-(4-(2-fluoroethoxy)phenyl)-6-chloroimidazo[1,2-a]pyridin-3-yl)-N-ethyl-N-methylacetamide], for which the IC50 in series [1] (PBR IC50 (nM)) was found to be 54.8 nM; in series [2], 1390 nM. This compound also came in with a chromatographic logP in “LogP HPLC” of 2.34 ± 0.07.
Taken in the same sequence, the figures for `CC(C)NC(=O)Cc1c(-c2ccc(OCCF)cc2)nc2ccc(Cl)cn12` [PBR110, 2-(2-(4-(2-fluoroethoxy)phenyl)-6-chloroimidazo[1,2-a]pyridin-3-yl)-N-isopropylacetamide] were 14.1 nM, 2740 nM and 2.74 ± 0.09.
On the same counts, the results for `CCN(CC)C(=O)Cc1c(-c2ccc(OCCCCF)cc2)nc2ccc(Cl)cn12` [PBR 120, 2-(2-(4-(4-fluorobutoxy)phenyl)-6-chloroimidazo[1,2-a]pyridin-3-yl)-N,N-diethylacetamide] are 35 nM, 942 nM and 3.53 ± 0.11.
For `CCN(CC)C(=O)Cc1c(-c2ccc(OCCCF)cc2)nc2c(Cl)cc(Cl)cn12` [PBR 130, 2-(2-(4-(3-fluoropropoxy)phenyl)-6,8-dichloroimidazo[1,2-a]pyridin-3-yl)-N,N-diethylacetamide], the IC50 was 20 nM in series [1] (PBR IC50 (nM)) and more than 5000 nM in series [2]. The “CBR, % @ 10^−5M” value in series [2] (@ 10^−5M, [3H]-Flumazenil) amounted to 50% @ 10^−5M. Also, in the series “LogP HPLC”, the chromatographic logP worked out at 3.43 ± 0.1.
As for `CCN(CC)C(=O)Cc1c(-c2ccc(C(C)(C)C)cc2)nc2ccc(F)nn12` [PBR 132, 2-(2-(4-tert-butylphenyl)-6-fluoroimidazo[1,2-b]pyridazin-3-yl)-N,N-diethylacetamide], the values for the IC50 in series [1] (PBR IC50 (nM)) and in series [2] were 38 nM and 343 nM, respectively. In “LogP HPLC”, the chromatographic logP is 3.6 ± 0.11.
Taken in the same sequence, the figures for `CCN(CC)C(=O)Cc1c(-c2ccc(OCCF)cc2)nc2c(Cl)cc(Cl)cn12` [PBR 136, 2-(2-(4-(2-fluoroethoxy)phenyl)-6,8-dichloroimidazo[1,2-a]pyridin-3-yl)-N,N-diethylacetamide] were 17.6 nM, 588 nM and 2.99 ± 0.09.
